This is an account of results in PMC3673472, “Structural and functional insight into the universal stress protein family” (Evolutionary Applications, 2013).

The target of experiment [1] is T1, NE1028 (Nitrosomonas europaea, UniProt Q82VN8).
T1 construct: full-length, N-terminal His6-TEV tag cleaved; wild type (not SeMet) in the AMP complex; homodimer
The experiment can be described thus: X-ray crystal structure of the complex ([…] Å). Conditions: cocrystallised with 10 mM AMP, pH 7.0, then soaked with 10 mM AMP for 24 h; ATP-binding site.

In experiment [2] the target is T2, AF0826 (Archaeoglobus fulgidus, UniProt O29432).
T2 construct: gene AF_0826; N-terminal His6-TEV tag kept; selenomethionine-substituted; homodimer; strain printed only for AF1760 of the same species
The experiment can be described thus: X-ray crystal structure of the complex ([…] Å). Conditions: SeMet crystals (pH 5.5) soaked with a cocktail of adenine, adenosine, AMP, ADP, ATP, dAMP, cAMP, ADP-ribose; ligand identified from structure; ATP-binding site.

T1 sequence (Q82VN8 entry or part of it): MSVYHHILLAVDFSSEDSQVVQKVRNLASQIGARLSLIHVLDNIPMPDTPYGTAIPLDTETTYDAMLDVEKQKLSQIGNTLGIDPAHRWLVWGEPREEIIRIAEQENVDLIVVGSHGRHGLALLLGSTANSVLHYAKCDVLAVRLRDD
T2 sequence (O29432 entry or part of it): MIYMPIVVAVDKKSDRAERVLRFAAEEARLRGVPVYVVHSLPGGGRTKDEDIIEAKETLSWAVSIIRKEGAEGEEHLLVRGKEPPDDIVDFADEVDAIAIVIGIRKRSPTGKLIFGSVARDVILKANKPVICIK

For `Nc1ncnc2c1ncn2[C@@H]1O[C@H](COP(=O)(O)O)[C@@H](O)[C@H]1O` [AMP], the “X-ray crystal structure of the complex (2.00 Å)” value in experiment [1] was “Our structure of NE1028–AMP confirms that the protein can bind at least one molecule”.
`Nc1ncnc2c1ncn2[C@H]1C[C@H](O)[C@@H](COP(=O)(O)O)O1` [dAMP]: the “X-ray crystal structure of the complex (2.10 Å)” value in experiment [2] was “we obtained the structure of AF0826 with dAMP bound in the vicinity”.
